Results as given in patent US20080153917A1, “Sigma Receptor Ligands” (UCB PHARMA, S.A., priority 2004, published 2008).
Where a name gives a salt, the structure may show the parent alone.

Assays:
[1] = tested on: MK801-induced short term/working memory deficits; test: spontaneous alternation task (Y-shaped maze), short term/working memory; type: in vivo; conditions: male mice, 8 minutes in maze; normal mice 65-70 %
Text: The effect of claimed compounds has been evaluated in an animal model of short term/working memory, namely the spontaneous alternation task. The test system consisted of a symmetrical Y-shaped maze. […] Claimed compounds were able to prevent this deficit after systemic administration.

| SMILES | melting point [°C] | % spontaneous alternation [1] |
| --- | --- | --- |
| NCCNC(=O)C(c1ccccc1)C1CCCC1 (centres unmarked) (as salt: HCl) [Compound 22, N-(2-aminoethyl)-2-cyclopentyl-2-phenylacetamide] | 290 | – |
| CN(C)[C@H]1CCN(C(=O)C(c2ccccc2)C2CCCC2)C1 (stereo partly drawn) (as salt: Na) [Compound 42, (3S)-1-[cyclopentyl(phenyl)acetyl]-N,N-dimethyl-3-pyrrolidinamine] | 68 | – |
| O=C(C(c1ccccc1)C1CCCC1)N1CCC(N2CCC(O)CC2)CC1 (centres unmarked) (as salt: HCl) [Compound 41, 1′-[cyclopentyl(phenyl)acetyl]-1,4′-bipiperidin-4-ol] | 90 | – |
| O=C(C(c1ccccc1)C1CCCC1)N1CCC(N2CCCCC2)CC1 (centres unmarked) (as salt: HCl) [Compound 24, 1′-[cyclopentyl(phenyl)acetyl]-1,4′-bipiperidine] | 112 | – |
| O=C(NCCCN1CCOCC1)C(c1ccccc1)C1CCCC1 (centres unmarked) (as salt: HCl) [Compound 32, 2-cyclopentyl-N-[3-(4-morpholinyl)propyl]-2-phenylacetamide] | 145 | – |
| CCOC(=O)C1CCN(C2CCN(C(=O)C(c3ccccc3)C3CCCC3)CC2)CC1 (centres unmarked) (as salt: HCl) [Compound 40, ethyl 1′-[cyclopentyl(phenyl)acetyl]-1,4′-bipiperidine-4-carboxylate] | 88 | – |
| O=C(C(c1ccc(Cl)cc1)C1CCCC1)N1CCC(N2CCCCC2)CC1 (centres unmarked) (as salt: HCl) [Compound 27, 1′-[(4-chlorophenyl)(cyclopentyl)acetyl]-1,4′-bipiperidine] | 105 | – |
| CCN(CC)C1CCN(C(=O)C(c2ccccc2)C2CCCC2)CC1 (centres unmarked) (as salt: HCl) [Compound 37, N-{1-[cyclopentyl(phenyl)acetyl]-4-piperidinyl}-N,N-diethylamine] | 79 | – |
| C[C@]12N[C@H](Cc3ccccc31)c1ccccc12 [MK801] | – | decreased percentage of spontaneous alternation |
| CCN(CC)CCNC(=O)C(c1ccccc1)C1CCCC1 (single isomer, unassigned; (-)) (as salt: HCl) [Compound 51, (−)2-cyclopentyl-N-[2-(diethylamino)ethyl]-2-phenylacetamide] | 146 | – |
| CC1CCCCN1CCCNC(=O)C(c1ccccc1)C1CCCC1 (centres unmarked) (as salt: HCl) [Compound 14, 2-cyclopentyl-N-[3-(2-methyl-1-piperidinyl)propyl]-2-phenylacetamide] | 69 | – |
| O=C(C(c1ccc(Cl)c(Cl)c1)C1CCCC1)N1CCC(N2CCCCC2)CC1 (centres unmarked) (as salt: HCl) [Compound 25, 1′-[cyclopentyl(3,4-dichlorophenyl)acetyl]-1,4′-bipiperidine] | 230 | – |
| CCNCCNC(=O)C(c1ccccc1)C1CCCC1 (centres unmarked) (as salt: HCl) [Compound 18, 2-cyclopentyl-N-[2-(ethylamino)ethyl]-2-phenylacetamide] | 131 | – |
| O=C(NCCCN1CCN(Cc2c(F)cccc2Cl)CC1)[C@@H]1C[C@H]1c1ccccc1 (relative stereo) (as salt: HCl) [Compound 5, Trans-N-{3-[4-(2-chloro-6-fluorobenzyl)-1-piperazinyl]propyl}-2-phenylcyclopropanecarboxamide] | 145 | – |
| O=C(NCCN1CCN(Cc2ccccc2)CC1)[C@@H]1C[C@H]1c1ccccc1 (relative stereo) (as salt: HCl) [Compound 7, Trans-N-[2-(4-benzyl-1-piperazinyl)ethyl]-2-phenylcyclopropanecarboxamide] | 195 | – |
| CCN(CC)CCNC(=O)C(c1ccc(F)cc1)C1CCCC1 (centres unmarked) (as salt: HCl) [Compound 21, 2-cyclopentyl-N-[2-(diethylamino)ethyl]-2-(4-fluorophenyl)acetamide] | 45 | – |
| CC(C)N1CCN(C2CCN(C(=O)C(c3ccccc3)C3CCCC3)CC2)CC1 (centres unmarked) (as salt: Na) [Compound 38, 1-{1-[cyclopentyl(phenyl)acetyl]-4-piperidinyl}-4-isopropylpiperazine] | 109.6 | – |
| O=C(C(c1ccccc1)C1CCCC1)N1CCC(N2CCOCC2)CC1 (centres unmarked) (as salt: Na) [Compound 36, 4-{1-[cyclopentyl(phenyl)acetyl]-4-piperidinyl}morpholine] | 111.8 | – |
| CCN(CC)CCNC(=O)C(c1ccccc1)C1CCCC1 (centres unmarked) (as salt: HCl) [Compound 15, 2-cyclopentyl-N-[2-(diethylamino)ethyl]-2-phenylacetamide] | 129 | – |
| O=C(NCCN1CCN(C(=O)c2c(F)cccc2Cl)CC1)[C@@H]1C[C@H]1c1ccccc1 (relative stereo) (as salt: HCl) [Compound 9, Trans-N-{2-[4-(2-chloro-6-fluorobenzoyl)-1-piperazinyl]ethyl}-2-phenylcyclopropanecarboxamide] | 122 | – |
| CCN(CC)CCNC(=O)C(c1ccccc1)C1CCCC1 (single isomer, unassigned; (+)) (as salt: HCl) [Compound 50, (+)2-cyclopentyl-N-[2-(diethylamino)ethyl]-2-phenylacetamide] | 144 | – |
| O=C(NCCCN1CCN(Cc2c(F)cccc2Cl)CC1)C(c1ccccc1)C1CCCC1 (centres unmarked) (as salt: HCl) [Compound 34, N-{3-[4-(2-chloro-6-fluorobenzyl)-1-piperazinyl]propyl}-2-cyclopentyl-2-phenylacetamide] | 148 | – |
| O=C(NCCN1CCN(Cc2ccc(Cl)c(Cl)c2)CC1)[C@@H]1C[C@H]1c1ccccc1 (relative stereo) (as salt: HCl) [Compound 10, Trans-N-{2-[4-(3,4-dichlorobenzyl)-1-piperazinyl]ethyl}-2-phenylcyclopropanecarboxamide] | 145 | – |
